Experimental data reported in patent US8952021B2, “Compounds for the prevention and treatment of cardiovascular disease” (Resverlogix Corp., priority 2009, dated 2015).

Assays:
ApoA-I mRNA = experiment: Quantification of ApoA-I mRNA in HepG2 cells (real-time PCR); assay type: cell-based; parameters: key: Active: An active compound was defined as one that caused a ≧20% increase in ApoA-I mRNA at a concentration less than or equal to 100 μM; details: fold induction relative to DMSO control, concentration less than or equal to 100 μM
Summary of the method: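 HepG2 cells (~2×10^5/well) in MEM with 0.5% (v/v) FBS were plated 24 h before compound addition. Lysate mRNA was captured and run in one-step real-time RT-PCR, with fold induction from Ct values relative to the matching DMSO control. A compound counted as active at ≥20% ApoA-I mRNA increase at ≤100 μM.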

subjects with low HDL-C = details: cited from earlier work

Compound | Effect on ApoA-I mRNA levels (ApoA-I mRNA) | melting point | increase in the HDL-C level (subjects with low HDL-C) | reduction of the CHD risk (subjects with low HDL-C)
CCC(C)c1ccc(-n2c(-c3ccc(OCCO)cc3)nc3ccccc3c2=O)cc1 (centres unmarked) [Example 6, 3-(4-sec-butylphenyl)-2-(4-(2-hydroxyethoxy)phenyl)quinazolin-4(3H)-one] | Active | 172.8 to 174.9 °C | – | –
CCC(C)c1ccc(-n2c(-c3cc(C)c(OCCO)c(C)c3)nc3ccc(OC)cc3c2=O)cc1 (centres unmarked) [Example 13, 3-(4-sec-butylphenyl)-2-(4-(2-hydroxyethoxy)-3,5-dimethylphenyl)-6-methoxyquinazolin-4(3H)-one] | Active | 152 to 154 °C | – | –
Cc1cc(-c2nc3ccccc3c(=O)n2-c2ccc(C(C)C)cc2)cc(C)c1OCCO [Example 18, 2-(4-(2-hydroxyethoxy)-3,5-dimethylphenyl)-3-(4-isopropylphenyl)quinazolin-4(3H)-one] | Active | 160 to 162 °C | – | –
COc1cccc2c(=O)n(-c3ccc(Br)cc3)c(-c3cc(C)c(OCCO)c(C)c3)nc12 [Example 17, 3-(4-bromophenyl)-2-(4-(2-hydroxyethoxy)-3,5-dimethylphenyl)-8-methoxyquinazolin-4(3H)-one] | Active | 100 to 102 °C | – | –
CCC(C)c1ccc(-n2c(-c3cc(C)c(OCCO)c(C)c3)nc3ccncc3c2=O)cc1 (centres unmarked) [Example 5, 3-(4-sec-butylphenyl)-2-(4-(2-hydroxyethoxy)-3,5-dimethylphenyl)pyrido[4,3-d]pyrimidin-4(3H)-one] | Active | 195 to 196 °C | – | –
Cc1cc(-c2nc3ccccc3c(=O)n2-c2ccc(Br)cc2)ccc1OCCO [Example 19, 3-(4-bromophenyl)-2-(4-(2-hydroxyethoxy)-3-methylphenyl)quinazolin-4(3H)-one] | Active | 92 to 93 °C | – | –
CCC(C)c1ccc(-n2c(-c3cc(C)c(OCCO)c(C)c3)nc3cc(S(C)(=O)=O)ccc3c2=O)cc1 (centres unmarked) [Example 12, 3-(4-sec-butylphenyl)-2-(4-(2-hydroxyethoxy)-3,5-dimethylphenyl)-7-(methylsulfonyl)quinazolin-4(3H)-one] | Active | 235 to 237 °C | – | –
CCC(C)c1ccc(-n2c(-c3cc(C)c(OCCO)c(C)c3)nc3ccc(S(C)(=O)=O)cc3c2=O)cc1 (centres unmarked) [Example 15, 3-(4-sec-butylphenyl)-2-(4-(2-hydroxyethoxy)-3,5-dimethylphenyl)-6-(methylsulfonyl)quinazolin-4(3H)-one] | Active | 258.8 to 260.2 °C | – | –
CCC(C)c1ccc(-n2c(-c3cc(C)c(OCCO)c(C)c3)nc3ccccc3c2=O)cc1 (centres unmarked) [Example 1 and 2, 3-(4-sec-butylphenyl)-2-(4-(2-hydroxyethoxy)-3,5-dimethylphenyl)quinazolin-4(3H)-one] | – | 152 to 153 °C | – | –
Cc1cc(-c2nc3ccccc3c(=O)n2-c2ccc(I)cc2)cc(C)c1OCCO [Example 8, 2-(4-(2-hydroxyethoxy)-3,5-dimethylphenyl)-3-(4-iodophenyl)quinazolin-4(3H)-one] | Active | 101 to 103 °C | – | –
Cc1cc(-c2nc3c(Cl)cccc3c(=O)n2-c2ccc(Br)cc2)cc(C)c1OCCO [Example 20, 3-(4-bromophenyl)-8-chloro-2-(4-(2-hydroxyethoxy)-3,5-dimethylphenyl)quinazolin-4(3H)-one] | Active | 185 to 186 °C | – | –
Cc1cc(-c2nc3ccccc3c(=O)n2-c2ccc(Cl)cc2)cc(C)c1OCCO [Example 10, 3-(4-chlorophenyl)-2-(4-(2-hydroxyethoxy)-3,5-dimethylphenyl)quinazolin-4(3H)-one] | Active | 101 to 103 °C | – | –
COc1ccc2nc(-c3cc(C)c(OCCO)c(C)c3)n(-c3ccc(Br)cc3)c(=O)c2c1 [Example 16, 3-(4-bromophenyl)-2-(4-(2-hydroxyethoxy)-3,5-dimethylphenyl)-6-methoxyquinazolin-4(3H)-one] | Active | 160 to 162 °C | – | –
Cc1cc(-c2nc3ccccc3c(=O)n2-c2ccc(Br)cc2)cc(C)c1OCCO [Example 3, 3-(4-bromophenyl)-2-(4-(2-hydroxyethoxy)-3,5-dimethylphenyl)quinazolin-4(3H)-one] | Active | 164 to 165 °C | – | –
Cc1cc(-c2nc3ccccc3c(=O)n2-c2ccc(C(C)(C)C)cc2)cc(C)c1OCCO [Example 22, 3-(4-tert-butylphenyl)-2-(4-(2-hydroxyethoxy)-3,5-dimethylphenyl)quinazolin-4(3H)-one] | Active | – | – | –
CCC(C)c1ccc(-n2c(-c3ccc(N4CCOCC4)nc3)nc3ccccc3c2=O)cc1 (centres unmarked) [Example 71, 3-(4-sec-butylphenyl)-2-(6-morpholinopyridin-3-yl)quinazolin-4(3H)-one] | Active | – | – | –
CCC(C)c1ccc(-n2c(-c3ccc(Br)nc3)nc3ccccc3c2=O)cc1 (centres unmarked) [Example 42, 2-(6-bromopyridin-3-yl)-3-(4-sec-butylphenyl)quinazolin-4(3H)-one] | Active | – | – | –
CCC(C)c1ccc(-n2c(-c3cc(C)c(OCCO)c(C)c3)nc3cc(F)ccc3c2=O)cc1 (centres unmarked) [Example 4, 3-(4-sec-butylphenyl)-7-fluoro-2-(4-(2-hydroxyethoxy)-3,5-dimethylphenyl)quinazolin-4(3H)-one] | Active | – | – | –
Cc1ccc(C)c(OCCCC(C)(C)C(=O)O)c1 [gemfibrozil] | – | – | 6% | 22%
Cc1cc(-c2nc3ccccc3c(=O)n2-c2ccc(F)cc2)cc(C)c1OCCO [Example 7, 3-(4-fluorophenyl)-2-(4-(2-hydroxyethoxy)-3,5-dimethylphenyl)quinazolin-4(3H)-one] | Active | 95 to 97 °C | – | –
O=c1c2ccccc2nc(-c2cncc(-c3ccccc3)c2)n1-c1ccc(Cl)cc1 [Example 60, 3-(4-chlorophenyl)-2-(5-phenylpyridin-3-yl)quinazolin-4(3H)-one] | Active | – | – | –
CCC(C)c1ccc(-n2c(-c3cc(C)c(OCCO)c(C)c3)nc3c(OC)cccc3c2=O)cc1 (centres unmarked) [Example 14, 3-(4-sec-butylphenyl)-2-(4-(2-hydroxyethoxy)-3,5-dimethylphenyl)-8-methoxyquinazolin-4(3H)-one] | Active | 158 to 159 °C | – | –
